In patent publication US10906904B2, “ADO-resistant cysteamine analogs and uses thereof” (HORIZON ORPHAN LLC, priority 2015, dated 2021):
Where two headings read alike, the source gives them in different places.

Key:
[1] = biological target: T1, human recombinant ADO (Homo sapiens, UniProt Q96SZ5); assay type: in vitro ADME
T1 sequence (Q96SZ5 1-270): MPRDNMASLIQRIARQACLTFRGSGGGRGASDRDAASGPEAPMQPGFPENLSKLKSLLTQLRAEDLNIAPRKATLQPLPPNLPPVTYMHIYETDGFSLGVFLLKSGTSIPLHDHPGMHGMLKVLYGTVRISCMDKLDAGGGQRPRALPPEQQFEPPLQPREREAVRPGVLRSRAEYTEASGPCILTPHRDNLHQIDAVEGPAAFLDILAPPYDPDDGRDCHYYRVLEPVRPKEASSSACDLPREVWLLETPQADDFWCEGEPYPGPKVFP
Method: The rate of ADO metabolism was determined by incubating 15 mM test compound with 60 μg/ml human recombinant ADO and 20 nM MitoXpress® O2-sensitive fluorescent probe (Luxcel) at 37° C. in assay buffer/salt in a sealed assay chamber. The initial rate of fluorescence (excitation λ380 nm and emission λ650 nm) increase was used to measure ADO-dependent oxygen depletion activity. The ability of ADO to metabolize compounds and concomitantly consume oxygen was expressed relative to that of 15 mM cysteamine.

[2] = tested on: cystinotic human fibroblasts; test: Cystine depletion assay; assay type: cell-based; details: for Emax: Homo sapiens, Fibroblast, 1 h, relative to cystine depletion by cysteamine (100%) at a similar concentration
Method: The ability of test compounds to deplete cystine from cystinotic human fibroblasts (Coriell) was determined by incubating compounds with cells for 60 min at 37° C., 95% (v/v) air/5% (v/v) CO2 in Minimal Essential Media Eagle. Treated cell samples were subsequently harvested, then homogenized to ensure plasma and lysosomal membrane disruption. Protein was removed by acid precipitation and cystine in the supernatant measured using LC-MS/MS and HILIC chromatography. Protein levels were determined and cystine levels reported as nM per mg/ml protein. Cystine levels after test compound treatment were expressed as a percentage of that of untreated control cells.
Compounds were assayed at a concentration of 50 μM or 100 μM according to the general methods described above.
Cystine depletion levels for the compounds are expressed in Table 4 as a percent relative to the cystine depletion achieved by cysteamine (c.f. cysteamine 100%) at a similar concentration.
Cystine depletion levels for each of the compounds in Table 5 are expressed as a percent relative to the cystine depletion achieved by cysteamine (c.f. cysteamine 100%) at a similar concentration.

[3] = Cystine reactivity assay; set-up: Cystine Reactivity: unit not given here; details: for Cystine Reactivity Assay (30° C.) (%) Mean Value: percentage of 3 mM cysteamine
Method: Cystine reactivity was assessed by incubating 3 mM test compound with 100 nM BODIPY® FL L-Cystine (Life Tech.) at 30° C., pH 7.4 in phosphate buffer. […] Compound cystine reactivity was expressed as a percentage of that of 3 mM cysteamine.
Under resting conditions, the inherent fluorescence of BODIPY® FL L-cystine was very low due to the spatial proximity of the two BODIPY molecules causing quenching. Under chemical reaction (disruption of the S—S bond), the spatial distance was increased, the quenching lost, and measured fluorescence increased. Time (minutes) vs. fluorescence (relative fluorescence units—RFU) was plotted and linear regression analysis was performed to generate a slope value corresponding to the reaction rate in RFU/min and an R2 value.

[4] = tested on: St-HdhQ^111/111 cells; test: Glutamate-induced neuronal excitotoxicity assay; assay type: cell-based; details: STHdhQ111, 6 mM L-glutamate 24 hours, % of effect of 100 μM cysteamine; for viability at 10 µM: read-out: HdhQ^111/111 cell % survival (mean ± STD) Test Conc. 10 μM; for viability at 100 µM: read-out: HdhQ^111/111 cell % survival (mean ± STD) Test Conc. 100 μM
Method: The ability of test compounds to inhibit glutamate-induced excitotoxicity (neuroprotection) in St-HdhQ^111/111 cells was determined by incubating compounds with cells for 60 min at 33° C., 95% (v:v) air/5% (v:v) CO2 in Dulbecco's Modified Eagle Media. Following this, excitotoxicity was induced by the addition of 6 mM L-glutamate for 24 hours. Cell viability was assessed by measuring ATP levels using a luminescent-based CellTitre Glo assay (Promega). Compound neuroprotection (% cell survival) was expressed as a % of the effect recorded with 100 μM cysteamine (denoted as 100% cell survival).

[5] = Table 4, read-out: Cystine Depletion (%)
[6] = Table 5, read-out: Cystine Depletion (%) Mean Value

Row | SMILES | ADO Metabolism Assay (%) Mean Value ([1]; human, 15 mM) | Emax [2, 5] | Cystine Reactivity Assay (30° C.) (%) Mean Value ([3]; Table 4) | viability at 10 µM [4] | viability at 100 µM [4] | Emax [2, 6] | Cystine Reactivity Assay (30° C.) (%) Mean Value ([3]; Table 5) | also measured
1 | S[C@H]1CCNC1 [Compound 42616] | <25% | 79% | 59-90% | 5 ± 7% | 56 ± 7% | – | – | –
2 | SC1CC2CCC(C1)N2 (centres unmarked) [Compound 42494] | <25% | 88% | 59-90% | 0% | 28 ± 17% | – | – | –
3 | S[C@H]1CCCNC1 [Compound 42247] | <25% | 96% | >90% | 5 ± 8% | 84 ± 13% | – | – | –
4 | N[C@H]1C[C@H](S)C1 [Compound 42460] | <25% | 111% | 59-90% | 3 ± 5% | 95 ± 9% | – | – | –
5 | OC1(CS)CCNCC1 [Compound 145610] | <25% | – | – | 11 ± 8% | 87 ± 10% | 11% | <50% | –
6 | C[C@H]1CNCC[C@@H]1S [Compound 42614] | <25% | 117% | – | 2 ± 6% | 59 ± 12% | – | – | –
7 | SC1CCCCNC1 (centres unmarked) [Compound 42345] | <25% | 50% | >90% | – | – | – | – | –
8 | SCC1COCCN1 (centres unmarked) [Compound 145591] | <25% | – | – | – | – | 61% | 50-90% | –
9 | C[C@H](CS)C(=O)N1CCC[C@H]1C(=O)O [Compound 653] | – | – | – | – | – | 23% | <50% | ADO Metabolism Assay (%) Mean Value ([1]; human): <25%
10 | S[C@@H]1CCNC1 [Compound 42617] | <25% | 101% | 59-90% | 7 ± 10% | 89 ± 7% | – | – | –
11 | N[C@H]1C[C@@H](CS)C1 [Compound 145587] | <25% | – | – | 52 ± 9% | 97 ± 7% | 13% | >90% | –
12 | SC[C@H]1CCCCN1 [Compound 145590] | <25% | – | – | 14 ± 7% | 90 ± 11% | 104% | >90% | –
13 | OCC1(S)CCCNC1 (centres unmarked) [Compound 150730] | <25% | – | – | – | – | 14% | >90% | –
14 | C[C@@H]1CNCC[C@@H]1S [Compound 42615] | <25% | 106% | <50% | – | – | – | – | –
15 | CCOC(=O)C1(S)CCCNC1 (centres unmarked) [Compound 42493] | <25% | 74% | 50-90% | 6 ± 10% | 87 ± 10% | – | – | –
16 | SC1CCCNC1 (centres unmarked) [Compound 42208] | <25% | 102% | >90% | – | – | – | – | –
17 | NC1CC(S)C1 (centres unmarked) [Compound 42209] | <25% | 99% | 59-90% | – | – | – | – | –
18 | CC(CS)Cc1ccccc1 (centres unmarked) [Compound 2403] | <25% | – | – | – | – | 19% | <50% | –

Row | SMILES | ADO Metabolism Assay (%) Mean Value ([1]; human, 15 mM) | Emax [2, 5] | Cystine Reactivity Assay (30° C.) (%) Mean Value ([3]; Table 4) | viability at 10 µM [4] | viability at 100 µM [4] | Emax [2, 6] | Cystine Reactivity Assay (30° C.) (%) Mean Value ([3]; Table 5) | also measured
19 | OCCC1(S)CNC1 [Compound 145695] | <25% | – | – | 8 ± 10% | 74 ± 10% | 0% | >90% | –
20 | CS(=O)(=O)N1CCNC(CS)C1 (centres unmarked) [Compound 145694] | <25% | – | – | 2 ± 10% | 15 ± 15% | 0% | >90% | –
21 | SCC1CCNCC1 [Compound 145586] | <25% | – | – | 9 ± 6% | 89 ± 9% | 21% | 50-90% | –
22 | NC1CCCC(S)C1 (centres unmarked) [Compound 145693] | <25% | – | – | – | – | 81% | 50-90% | –
23 | CNC1CC(S)C1 (centres unmarked) [Compound 149608] | <25% | – | – | – | – | 55% | <50% | –
24 | CCN(CC)C(=S)SSC(=S)N(CC)CC [Compound 981] | <25% | – | – | – | – | 25% | <50% | –
25 | CN[C@H]1C[C@H](S)C1 [Compound 149609] | <25% | – | – | – | – | 50% | <50% | –
26 | CC(C)(S)CN [Compound 3a] | – | – | – | – | – | – | – | metabolism by ADO compared to cysteamine (in words) [1]: significantly reduced metabolism by ADO compared to cysteamine; ADO metabolism ([1]; human, 15 mM): 14%; cystine depletion levels (in words) ([2]; compared to cysteamine): slightly decreased; Cystine depletion ([2]; compound at 50 μM or 100 μM, Tables 1-3): 32%; Cystine Reactivity ([3]; Tables 1-3): 2284
27 | SCC1CCCNC1 (centres unmarked) [Compound 145588] | <25% | – | – | 9 ± 9% | 98 ± 5% | 31% | >90% | –
28 | NC1CC(O)(CS)C1 (centres unmarked) [Compound 149610] | <25% | – | – | – | – | 15% | <50% | –
29 | N[C@H]1C[C@@H](S)C1 [Compound 42457] | <25% | 108% | 59-90% | 6 ± 5% | 91 ± 6% | 77% | 50-90% | –
30 | C[C@H]1CC[C@H](S)CN1 [Compound 42613] | <25% | 109% | >90% | – | – | – | – | –
31 | Cn1cc[nH]c1=S [Compound 1176] | <25% | – | – | – | – | 10% | <50% | –
32 | SC[C@H]1CCCN1 [Compound 42211] | <25% | 79% | >90% | 2 ± 9% | 84 ± 19% | – | – | –
33 | CC1(S)CCCNC1 (centres unmarked) [Compound 42388] | <25% | 97% | >90% | 5 ± 6% | 91 ± 5% | 63% | >90% | –
34 | CCN1CCCC1 [Compound 145611] | <25% | – | – | 24 ± 13% | 94 ± 8% | 9% | <50% | –
35 | SC12CCN(CC1)CC2 [Compound 42389] | <25% | 36% | 50-90% | – | – | – | – | –
